Read-outs that look alike come from different tables or passages of the source.
Tests used:
JAK1 = biological target: T1, JAK1 (Homo sapiens, UniProt P23458); test: Biochemical JAK1 kinase assay (LanthaScreen); details: for Ki: read-out: JAK 1 (pKi) (converted)
T1 construct: GST; purchased Life Technologies
Outline: (§1)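 GST-tagged JAK enzyme and GFP-STAT1 peptide preincubated with compound 1 h, then ATP added; 1 h kinase reaction at ambient temperature, pH 7.5 HEPES/MgCl2 buffer, 1% DMSO. Tb-anti-pSTAT1 (pTyr701) TR-FRET, 520/495 nm ratio; IC50 from 4-parameter fit, converted to pKi via Cheng-Prusoff.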

[1] = test system: IL-2 stimulated pSTAT5 in Tall-1 T cells; test: Cellular JAK3 potency assay: inhibition of IL-2 stimulated pSTAT5 in Tall-1 T cells; assay type: cell-based, human; details: for IC50: Homo sapiens, read-out: Tall-1 (pIC50) (converted)
Outline: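 In human Tall-1 T cells, IL-2 (300 ng/ml final, 30 min) drives STAT5 phosphorylation after a 1 h compound pretreatment. Lysates are assayed for pSTAT5 by AlphaLisa, and IC50 derived from signal versus concentration is expressed as pIC50.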

JAK3 = biological target: T2, JAK3 (Homo sapiens, UniProt P52333); test: Biochemical JAK3 kinase assay (LanthaScreen); design: GST; purchased Life Technologies
T2 sequence (P52333 1-1124): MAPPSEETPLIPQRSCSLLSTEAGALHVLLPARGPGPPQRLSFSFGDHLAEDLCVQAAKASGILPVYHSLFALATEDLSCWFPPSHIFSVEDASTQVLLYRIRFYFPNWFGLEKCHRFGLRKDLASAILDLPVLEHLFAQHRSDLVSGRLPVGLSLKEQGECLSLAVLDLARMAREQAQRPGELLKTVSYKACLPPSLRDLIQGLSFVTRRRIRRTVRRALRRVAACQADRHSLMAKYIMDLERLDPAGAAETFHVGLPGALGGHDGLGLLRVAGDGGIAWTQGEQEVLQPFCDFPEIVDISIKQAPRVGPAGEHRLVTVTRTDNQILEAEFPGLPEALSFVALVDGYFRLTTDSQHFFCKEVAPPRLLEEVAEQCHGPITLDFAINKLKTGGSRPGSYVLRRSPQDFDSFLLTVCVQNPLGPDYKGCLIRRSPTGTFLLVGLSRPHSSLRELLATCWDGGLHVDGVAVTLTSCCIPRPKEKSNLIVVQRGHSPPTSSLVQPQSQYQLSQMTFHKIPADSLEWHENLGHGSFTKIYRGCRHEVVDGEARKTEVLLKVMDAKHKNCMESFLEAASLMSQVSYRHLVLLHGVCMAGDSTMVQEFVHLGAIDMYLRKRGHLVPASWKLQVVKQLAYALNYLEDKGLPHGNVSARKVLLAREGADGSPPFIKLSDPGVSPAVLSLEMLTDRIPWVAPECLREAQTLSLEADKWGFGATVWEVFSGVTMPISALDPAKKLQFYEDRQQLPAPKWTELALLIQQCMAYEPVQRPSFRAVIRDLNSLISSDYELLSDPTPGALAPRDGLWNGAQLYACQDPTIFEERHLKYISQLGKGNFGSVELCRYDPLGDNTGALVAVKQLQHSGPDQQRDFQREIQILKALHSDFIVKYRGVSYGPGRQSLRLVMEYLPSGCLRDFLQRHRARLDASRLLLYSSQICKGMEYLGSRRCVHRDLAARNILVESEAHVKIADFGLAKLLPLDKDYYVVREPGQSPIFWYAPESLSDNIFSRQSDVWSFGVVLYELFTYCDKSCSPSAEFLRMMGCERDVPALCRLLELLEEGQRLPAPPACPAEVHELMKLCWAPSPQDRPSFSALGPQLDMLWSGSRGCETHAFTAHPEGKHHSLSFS
Outline: as §1

[2] = IL-2 stimulated pSTAT5, Tall-1 T cells
[3] = selectivity JAK3 over JAK1, difference of pKi
[4] = IL-2 stimulated pSTAT5 in Tall-1 T cells
[5] = selectivity: difference of pKi JAK3 and pKi JAK1
[6] = TALL-1, IL-2 stimulated pSTAT5 in Tall-1 T cells
[7] = read-out: JAK 3 (pKi) (converted)
[8] = TALL-1, IL-2 stimulated pSTAT5, Tall-1 T cells

T1 sequence (P23458 whole entry): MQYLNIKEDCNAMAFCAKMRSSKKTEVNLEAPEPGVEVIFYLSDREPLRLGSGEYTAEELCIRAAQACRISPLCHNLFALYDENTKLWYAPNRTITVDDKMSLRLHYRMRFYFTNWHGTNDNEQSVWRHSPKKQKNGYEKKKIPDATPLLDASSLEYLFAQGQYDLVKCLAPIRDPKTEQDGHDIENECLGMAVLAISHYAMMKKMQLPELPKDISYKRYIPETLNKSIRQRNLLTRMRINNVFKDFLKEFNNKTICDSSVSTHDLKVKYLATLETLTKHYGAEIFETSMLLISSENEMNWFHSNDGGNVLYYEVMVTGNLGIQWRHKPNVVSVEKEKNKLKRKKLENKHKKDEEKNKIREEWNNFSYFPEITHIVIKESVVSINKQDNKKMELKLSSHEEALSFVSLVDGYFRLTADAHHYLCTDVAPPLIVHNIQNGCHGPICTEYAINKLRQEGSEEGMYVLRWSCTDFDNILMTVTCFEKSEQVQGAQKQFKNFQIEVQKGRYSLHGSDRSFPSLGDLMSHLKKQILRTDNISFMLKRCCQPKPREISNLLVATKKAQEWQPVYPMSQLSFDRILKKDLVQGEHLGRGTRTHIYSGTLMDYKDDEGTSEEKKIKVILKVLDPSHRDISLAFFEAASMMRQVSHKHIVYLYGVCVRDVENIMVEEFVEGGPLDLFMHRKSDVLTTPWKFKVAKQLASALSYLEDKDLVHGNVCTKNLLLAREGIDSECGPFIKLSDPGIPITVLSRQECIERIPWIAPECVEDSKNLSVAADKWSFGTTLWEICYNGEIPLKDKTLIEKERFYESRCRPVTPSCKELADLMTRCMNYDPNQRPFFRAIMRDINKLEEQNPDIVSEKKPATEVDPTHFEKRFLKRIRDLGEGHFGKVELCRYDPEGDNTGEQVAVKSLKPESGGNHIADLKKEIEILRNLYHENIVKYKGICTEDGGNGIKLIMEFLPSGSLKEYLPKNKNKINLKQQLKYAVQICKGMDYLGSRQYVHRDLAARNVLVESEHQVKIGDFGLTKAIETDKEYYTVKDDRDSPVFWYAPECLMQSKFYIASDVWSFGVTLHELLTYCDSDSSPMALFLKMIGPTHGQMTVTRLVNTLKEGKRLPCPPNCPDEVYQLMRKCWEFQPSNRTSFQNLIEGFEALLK

CN(C)C/C=C/C(=O)N1CCC(COc2nc(-c3ccc(O)c(F)c3)cc3[nH]ncc23)CC1 [Compound 14-11]
JAK 1 (pKi) (JAK1): D (a pKi value between 7 and 8 (Ki between 100 nM and 10 nM))
Tall-1 (pIC50) [1, 2]: C (a pIC50 value between 6 and 6.7 (IC50 between 1 μM and 200 nM))
JAK 3 (pKi) (JAK3): B (a pKi value between 9 and 10 (Ki between 1 nM and 0.1 nM))
JAK3 (pKi)-JAK1 (pKi) (JAK3; [3]): B (a value of 2.3 to 3)

C=CC(=O)N1CC(CC)(COc2cc(-c3ccc(O)c(Cl)c3)cc3[nH]ncc23)C1 [Compound 3-16]
JAK 1 (pKi) (JAK1): E (a pKi value of 7 or below (Ki of 100 nM or above))
Tall-1 (pIC50) [1, 4]: B (a pIC50 value between 6.7 (included) and 7.5 (IC50 between 200 nM and 32 nM))
JAK 3 (pKi) (JAK3): A (a pKi value≥10 (Ki≤0.1 nM))
JAK3 (pKi)-JAK1 (pKi) (JAK3; [5]): A (a value of 3 or above)

C=CC(=O)N1CC(Oc2nc(-c3ccc(O)cc3)nc3[nH]ncc23)C1 [Compound 5-20]
JAK 1 (pKi) (JAK1): E (a pKi value of 7 or below (Ki of 100 nM or above))
Tall-1 (pIC50) [1, 2]: C (a pIC50 value between 6 and 6.7 (IC50 between 1 μM and 200 nM))
JAK 3 (pKi) (JAK3): B (a pKi value between 9 and 10 (Ki between 1 nM and 0.1 nM))
JAK3 (pKi)-JAK1 (pKi) (JAK3; [3]): A (a value of 3 or above)

C=CC(=O)N1CC[C@H](Oc2cc(-c3cc(F)c(O)cc3F)cc3[nH]nc(C)c23)C1 [Compound 1-30]
Ki (JAK1): 0.01 to 0.1 µM
IC50 [1, 6]: 0.0316 to 0.2 µM
Ki (JAK3; [7]): < 0.0001 µM
JAK3 (pKi)-JAK1 (pKi) (JAK3; [5]): B (a value of 2.3 to 3)

C=CC(=O)N1C2CCC1CC(Oc1nc(-c3ccc(O)cc3)cc3[nH]ncc13)C2 (stereo not shown) [Compound 9-6]
JAK 1 (pKi) (JAK1): E (a pKi value of 7 or below (Ki of 100 nM or above))
Tall-1 (pIC50) [1, 2]: A (a pIC50 value≥7.5 (IC50≤32 nM))
JAK 3 (pKi) (JAK3): B (a pKi value between 9 and 10 (Ki between 1 nM and 0.1 nM))
JAK3 (pKi)-JAK1 (pKi) (JAK3; [3]): A (a value of 3 or above)

CN(C)CC=CC(=O)N1C2CCC1CC(Oc1nc(-c3ccc(O)c(Cl)c3)cc3[nH]ncc13)C2 (stereo not shown) [Compound 9-8]
JAK 1 (pKi) (JAK1): D (a pKi value between 7 and 8 (Ki between 100 nM and 10 nM))
Tall-1 (pIC50) [1, 2]: C (a pIC50 value between 6 and 6.7 (IC50 between 1 μM and 200 nM))
JAK 3 (pKi) (JAK3): B (a pKi value between 9 and 10 (Ki between 1 nM and 0.1 nM))
JAK3 (pKi)-JAK1 (pKi) (JAK3; [3]): C (a value of 1.8 to 2.3)

CN(C)C/C=C/C(=O)N1CC[C@@H](Sc2cc(-c3ccc(O)cc3)cc3[nH]ncc23)C1 [Compound 12-3]
Ki (JAK1): 0.01 to 0.1 µM
IC50 [1, 8]: 0.2 to 1 µM
Ki (JAK3; [7]): 0.0001 to 0.001 µM
JAK3 (pKi)-JAK1 (pKi) (JAK3; [3]): B (a value of 2.3 to 3)

CN(C)CC=CC(=O)N1C2CCC1CC(Oc1cc(-c3ccc(O)c(F)c3)cc3[nH]ncc13)C2 (stereo not shown) [Compound 9-5]
JAK 1 (pKi) (JAK1): D (a pKi value between 7 and 8 (Ki between 100 nM and 10 nM))
Tall-1 (pIC50) [1, 2]: C (a pIC50 value between 6 and 6.7 (IC50 between 1 μM and 200 nM))
JAK 3 (pKi) (JAK3): B (a pKi value between 9 and 10 (Ki between 1 nM and 0.1 nM))
JAK3 (pKi)-JAK1 (pKi) (JAK3; [3]): C (a value of 1.8 to 2.3)

C#CC(=O)N1CC(COc2cc(-c3ccc(O)cc3)cc3[nH]ncc23)C1 [Compound 3-84]
Ki (JAK1): > 0.1 µM
IC50 [1, 6]: 0.0316 to 0.2 µM
Ki (JAK3; [7]): < 0.0001 µM
JAK3 (pKi)-JAK1 (pKi) (JAK3; [5]): A (a value of 3 or above)

CN(C)C/C=C/C(=O)N1CCC(COc2cc(-c3ccc(O)c(Cl)c3)cc3[nH]ncc23)CC1 [Compound 14-3]
JAK 1 (pKi) (JAK1): E (a pKi value of 7 or below (Ki of 100 nM or above))
Tall-1 (pIC50) [1, 2]: B (a pIC50 value between 6.7 (included) and 7.5 (IC50 between 200 nM and 32 nM))
JAK 3 (pKi) (JAK3): B (a pKi value between 9 and 10 (Ki between 1 nM and 0.1 nM))
JAK3 (pKi)-JAK1 (pKi) (JAK3; [3]): B (a value of 2.3 to 3)

CN(C)CC=CC(=O)N1C2CCC1CC(Oc1cc(-c3ccc(O)c(F)c3)cc3[nH]ncc13)C2 (stereo not shown) [Compound 10-5]
JAK 1 (pKi) (JAK1): D (a pKi value between 7 and 8 (Ki between 100 nM and 10 nM))
Tall-1 (pIC50) [1, 2]: B (a pIC50 value between 6.7 (included) and 7.5 (IC50 between 200 nM and 32 nM))
JAK 3 (pKi) (JAK3): B (a pKi value between 9 and 10 (Ki between 1 nM and 0.1 nM))
JAK3 (pKi)-JAK1 (pKi) (JAK3; [3]): C (a value of 1.8 to 2.3)

C=CC(=O)N1C2CCC1CC(Oc1cc(-c3ccc(O)c(F)c3)cc3[nH]ncc13)C2 (stereo not shown) [Compound 10-6]
JAK 1 (pKi) (JAK1): D (a pKi value between 7 and 8 (Ki between 100 nM and 10 nM))
Tall-1 (pIC50) [1, 2]: A (a pIC50 value≥7.5 (IC50≤32 nM))
JAK 3 (pKi) (JAK3): B (a pKi value between 9 and 10 (Ki between 1 nM and 0.1 nM))
JAK3 (pKi)-JAK1 (pKi) (JAK3; [3]): B (a value of 2.3 to 3)

C=CC(=O)N1CCC(C)(Oc2cc(-c3ccc(O)c(Cl)c3)cc3[nH]ncc23)CC1 [Compound 6-5]
JAK 1 (pKi) (JAK1): E (a pKi value of 7 or below (Ki of 100 nM or above))
Tall-1 (pIC50) [1, 2]: A (a pIC50 value≥7.5 (IC50≤32 nM))
JAK 3 (pKi) (JAK3): B (a pKi value between 9 and 10 (Ki between 1 nM and 0.1 nM))
JAK3 (pKi)-JAK1 (pKi) (JAK3; [3]): A (a value of 3 or above)

C=CC(=O)N1CCO[C@H](C(=O)Nc2cc(-c3ccc(O)cc3)cc3[nH]ncc23)C1 [Compound 11-1]
JAK 1 (pKi) (JAK1): E (a pKi value of 7 or below (Ki of 100 nM or above))
Tall-1 (pIC50) [1, 2]: A (a pIC50 value≥7.5 (IC50≤32 nM))
JAK 3 (pKi) (JAK3): B (a pKi value between 9 and 10 (Ki between 1 nM and 0.1 nM))
JAK3 (pKi)-JAK1 (pKi) (JAK3; [3]): A (a value of 3 or above)

C#CC(=O)N1CC[C@H](Oc2cc(-c3ccc(O)cc3)cc3[nH]ncc23)C1 [Compound 17, (S)-1-(3-((6-(4-hydroxyphenyl)-1H-indazol-4-yl)oxy)pyrrolidin-1-yl)prop-2-yn-1-one]
Ki (JAK1): > 0.1 µM
IC50 [1, 6]: 0.2 to 1 µM
Ki (JAK3; JAK 3 (pKi)): 0.0001 to 0.001 µM
JAK3 (pKi)-JAK1 (pKi) (JAK3; [5]): B (a value of 2.3 to 3)

C=CC(=O)N1CC[C@H](Oc2cc(-c3ccc(O)cc3)nc3[nH]ncc23)C1 [Compound 1-9]
JAK 1 (pKi) (JAK1): E (a pKi value of 7 or below (Ki of 100 nM or above))
Tall-1 (pIC50) [1, 4]: C (a pIC50 value between 6 and 6.7 (IC50 between 1 μM and 200 nM))
JAK 3 (pKi) (JAK3): A (a pKi value≥10 (Ki≤0.1 nM))
JAK3 (pKi)-JAK1 (pKi) (JAK3; [5]): A (a value of 3 or above)

C=CC(=O)N1CC[C@H](Oc2cc(-c3cc(F)c(O)c(F)c3)cc3[nH]ncc23)C1 [Compound 1-14]
Ki (JAK1): > 0.1 µM
IC50 [1, 6]: 0.0316 to 0.2 µM
Ki (JAK3; [7]): < 0.0001 µM
JAK3 (pKi)-JAK1 (pKi) (JAK3; [5]): A (a value of 3 or above)

C=CC(=O)N1CC(COc2cc(-c3ccc(O)cc3)cc3[nH]nc(C)c23)C1 [Compound 18-5]
Ki (JAK1): 0.01 to 0.1 µM
IC50 [1, 8]: < 0.0316 µM
Ki (JAK3; [7]): 0.0001 to 0.001 µM
JAK3 (pKi)-JAK1 (pKi) (JAK3; [3]): B (a value of 2.3 to 3)

C=CC(=O)N1CC(F)(C2(Oc3cc(-c4ccc(O)cc4)cc4[nH]ncc34)CC2)C1 [Compound 12-37]
Ki (JAK1): 0.01 to 0.1 µM
IC50 [1, 8]: 0.0316 to 0.2 µM
Ki (JAK3; [7]): 0.0001 to 0.001 µM
JAK3 (pKi)-JAK1 (pKi) (JAK3; [3]): B (a value of 2.3 to 3)
